Consider 2 compounds from patent US20130071328A1, “Propynoic Acid Carbamoyl Methyl-Amides and Pharmaceutical Compositions and Methods Based Thereon” (UNIVERSITY OF SOUTHERN CALIFORNIA, priority 2011, published 2013).

Data set [1] concerns SOD1. The experiment in a line: Kinexus 628-antibody microarray. In kind it is cell-based, human. The conditions noted are these: MDA-MB-435 cells, 0.1 μM, 24 h. The source says:
To better understand the mechanisms of action of this class of novel PACMA compounds, we subjected cell lysates from untreated and compound 1-treated MDA-MB-435 cells to the Kinexus 628-antibody microarray analysis in search of potential signaling molecules; 350 pan-specific and 270 phospho-site antibodies were included to track changes in protein expression and phosphorylation status. The cell lysates were run in parallel on the Kinexus antibody chip and the differential binding of dye-labeled proteins was detected and quantified. Proteins with significant expression changes were then identified and used as the basis for signaling pathway interpretation.
MDA-MB-435 cells were treated with 0.1 μM compound 1 for 24 h. After treatment, cells were washed with ice-cold PBS to remove residual medium. Cells were then lysed in 200 μL of lysis buffer (20 mM MOPS, pH 7.0, 2 mM EGTA, 5 mM EDTA, 30 mM sodium fluoride, 60 mM β-glycerophosphate, pH 7.2, 20 mM sodium pyrophosphate, 1 mM sodium orthovanadate, 1 mM phenylmethylsulfonylfluoride, 3 mM benzamidine, 5 μM pepstatin A, 10 μM leupeptin, 1% Triton X-100, 1 mM dithiothreitol) and collected into a microcentrifuge tube. […] The supernatants were then transferred to a cleanmicrocentrifuge tube, and the protein concentrations were measured using BCA protein assay. […]

In data set [2] the test system is doxorubicin-resistant NCI/ADR-RES ovarian cancer cell line. The experiment in a line: Cytotoxicity assay, NCI/ADR-RES. It counts as cell-based. Particulars: Homo sapiens, MTT, 72 h exposure (Table 2). Put shortly: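 Cells attached overnight, then continuously exposed to drug for 72 h. MTT (0.5 mg/mL final) added 4 h at 37 °C, formazan dissolved in DMSO, absorbance at 570 nm, triplicates; IC50 from log concentration versus % cells killed.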

Data set [3] relates to MDA-MB-435 cells. Put plainly: Apoptosis assay, annexin V/propidium iodide flow cytometry. In kind it is cell-based, human. The conditions noted are these: for induction of apoptosis: 24 and 48 hours. As to the method:
To quantify drug-induced apoptosis, annexin V/propidium iodide staining was performed and analyzed by flow cytometry. MDA-MB-435 cells were treated with 10 μM compound 1, 2, or 4 for 24 and 48 h. After treatment, both floating and adherent cells were combined and subjected to annexin V/propidium iodide staining using an annexin V-FITC apoptosis detection kit (Oncogene Research Products, San Diego, Calif.) according to manufacturer's recommendations. Untreated control cells (48 h) were maintained in parallel to drugtreated groups. Double staining was used to distinguish between viable, early apoptotic, and necrotic or late apoptotic cells. The resulting fluorescence (FITC-A channel for green fluorescence and PE-A channel for red fluorescence) was measured by flow cytometry using a BD LSRII flow cytometer (BD Biosciences, San Jose, Calif.).
A general note: Flow cytometry measures light scatter and fluorescence of single cells or particles in a stream.

In data set [4] the test system is p53. Put plainly: Western blotting of p53 protein level. In kind it is cell-based, human. Particulars: MDA-MB-435 cells, 1 μM, 24 to 72 hours. Here is the method: (§1) Cells were detached using 1×trypsin-EDTA solution and collected by centrifugation at 1200 rpm for 5 min. Cells were then lysed in 80 μL of 1× cell lysis buffer (50 mM Tris-HCl, pH 7.5, 150 mM NaCl, and 1% NP-40) and pelleted by centrifugation at 14,000 rpm for 20 min at 4° C. Protein concentration of the whole cell lysates was measured using BCA protein assay and equal amounts of total protein were resolved on a 10% tris-glycine gel via SDS-PAGE. The separated proteins were electro-blotted onto nitrocellulose membrane and blocked in 5% BSA/PBS for 1 h at room temperature. The membrane was probed with anti-p53 (SC-126, Santa Cruz Biotechnology Inc.), anti-caspase 9 (Cat. no. 9508; Cell Signaling Technology), anti-a-tubulin (SC-5286, Santa Cruz Biotechnology Inc.), and anti-GAPDH(Y3322GAPDH, Biochain Institute, Inc.) antibodies at 4 C overnight. Horseradish peroxidase-conjugated secondary antibodies (Invitrogen, Carlsbad, Calif.) in combination with SuperSignal Dura (ThermoFisher, Rockford, Ill.) enhanced chemiluminescence (ECL) solutions were used to visualize proteins of interest with a ChemiDoc Imaging system (Bio-Rad, Hercules, Calif.).
In general terms: Immunoblotting shows a protein as a band on a membrane.

Data set [5] concerns HCT116 p53^−/− colon cancer cell line. The experiment in a line: MTT cytotoxicity assay, HCT116 p53-/-. In kind it is cell-based. The conditions noted are these: Homo sapiens, HCT-116, 72 h exposure. Summed up: (§2)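 Cells were seeded, allowed to attach overnight, then exposed continuously to drug for 72 h. MTT (0.5 mg/mL final) was added for 4 h at 37 °C, formazan was dissolved in DMSO and absorbance read at 570 nm. IC50 came from log(drug concentration) versus percent cells killed, triplicate.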
(In general: Tetrazolium dyes change colour on reduction, which living cells bring about.)

Data set [6] has as its system HCT116 p53^+/+ colon cancer cell line. Put plainly: MTT cytotoxicity assay, HCT116 p53+/+. Particulars: Homo sapiens, HCT-116, 72 h exposure. It counts as cell-based. Summed up: as §2
Data set [7] deals with 5637 bladder cancer cell line. The experiment in a line: MTT cytotoxicity assay, 5637. It counts as cell-based, human. Particulars: for IC50: Homo sapiens, 72 h exposure. Put shortly:
as §2

The subject of data set [8] is MDA-MB-435 cells. The experiment in a line: Mitochondrial superoxide production (MitoSOX Red). It counts as cell-based, human. Particulars: IC50 or 3×IC50, 24 hours. Here is the method:
After drug treatments, a solution of 5 μM MitoSOX Red mitochondrial superoxide indicator (Invitrogen, Carlsbad, Calif.) was added, and cells were incubated for 10 min at 37° C. Cells were then washed three times with Hank's balanced salt solution (HBSS) to remove excess MitoSOX. After washing, cells were either observed under the fluorescence microscope or collected by trypsinization, washed twice with HBSS, and measured for superoxide production using a BD LSRII flow cytometer (BD Biosciences, San Jose, Calif., USA). Data were analyzed with the BD FACSDiva software package (BD Biosciences, San Jose, Calif., USA).

Data set [9] deals with HEY ovarian cancer cell line. Put plainly: Cytotoxicity assay, HEY. The conditions noted are these: Homo sapiens; MTT, 72 h exposure (Table 2). In kind it is cell-based. Summed up:
as §2

Data set [10] relates to caspase-9. Put plainly: Western blotting of full-length caspase-9 protein level. In kind it is cell-based, human. The conditions noted are these: MDA-MB-435 cells, 1 μM, after 24 hours, maintained up to 72 hours. Here is the method: as §1
Data set [11] has as its system UMUC3 bladder cancer cell line. The experiment in a line: MTT cytotoxicity assay, UMUC3. Particulars: Homo sapiens, 72 h exposure. It counts as cell-based. Put shortly: as §2
For data set [12], the system named is HT29 colon cancer cell line. The experiment in a line: MTT cytotoxicity assay, HT29. It counts as cell-based. Particulars: Homo sapiens, HT-29, 72 h exposure. Put shortly:
as §2

The subject of data set [13] is MDA-MB-435 cells. Put plainly: Cell cycle analysis by propidium iodide flow cytometry. In kind it is cell-based, human. As to the method:
Cell cycle perturbations were analyzed by propidium iodide DNA staining. Exponentially growing MDA-MB-435 cells were treated with 5 μM compound 4 for 6, 12, and 24 h. At the end of treatment, cells were collected and washed with 1×PBS after a gentle centrifugation at 1500 rpm for 5 min. Cells were then thoroughly resuspended in 0.5 mL of PBS and fixed in 70% ethanol overnight at 4° C. Ethanol-fixed cells were centrifuged at 3000 rpm for 5 min and washed twice in PBS to remove residual ethanol. For cell cycle analysis, the pellets were resuspended in 1 mL of PBS containing 0.02 mg/mL of propidium iodide and 0.5 mg/mL of DNase-free RNase A and incubated at 37° C. for 30 min. Cell cycle profiles were obtained using a BD LSRII flow cytometer (BD Biosciences, San Jose, Calif.). Propidium iodide was excited using a 488 nm blue argon laser. Resulting fluorescence was measured using a PMT detector equipped with 550 nm long pass dichroic mirror and 575/26 bandpass filter. Data were analyzed with the ModFit LT software package (Verify Software House, Inc., Topsham, Me.).

Data set [14] has as its system MDA-MB-435 breast cancer cell line. The experiment in a line: MTT cytotoxicity assay, MDA-MB-435. It counts as cell-based, human. Summed up: as §2
For data set [15], the system named is panel of cancer cells. Put plainly: MTT cytotoxicity of compound 4 across tested cell lines (FIG. 2B). The conditions noted are these: Homo sapiens, MTT assays. In kind it is cell-based. As to the method:
Cytotoxicity was assessed by MTT assay as described previously. 43 In brief, cells were seeded in 96-well microtiter plates and allowed to attach overnight. Cells were subsequently treated with continuous exposure to corresponding drugs for 72 h. At the end of treatments, an MTT solution (at a final concentration of 0.5 mg/mL) was added to each well, and cells were incubated for 4 h at 37° C. After removal of the supernatant, DMSO was added, and the absorbance was read at 570 nm. All assays were done in triplicate. The IC50 was then determined for each drug from a plot of log(drug concentration) versus percentage of cells killed.

Data set [16] is described as follows: Pharmacokinetics study after i.p. administration. It counts as in vivo, mice. Particulars: mouse, ip. As to the method:
To assess the efficacy, tolerability, and pharmacokinetics of these novel compounds following i.p. administration, the pharmacokinetic profile of compounds 4 and 9 was evaluated (Table 3). Mice were treated with compounds 4 and 9 via i.p. injection and serial blood sampling was determined at indicated times after administration. The plasma concentration was determined using a validated liquid chromatography mass spectrometry (LC-MS) method where the lowest level of quantification was 1 ng/mL. One hour following i.p. administration of compounds 4 and 9, their concentrations in the blood were 344 and 6.2 ng/mL, respectively. […] The half-lives of compounds 4 and 9 via i.p. administration were determined to be approximately 3.5 and 9.3 hours, respectively, when a non-compartmental pharmacokinetics analysis was used. The favorable pharmacokinetics profile of compounds 4 and 9 is consistent with the ADMET predictions described previously.
Preliminary pharmacokinetics of compounds 4 and 9 were performed using 18 mice, each time point consisting of two mice. Mice were stratified to various doses given as an i.p. injection of compounds 4 and 9 (24 mg/kg). At the specified time points following drug administration, blood was collected with heparinized syringes. The samples were allowed to settle in 500 μL eppendorf vials and then centrifuged at 1500 rpm for 10 min. The plasma was removed, transferred into new eppendorf tube, and frozen at −80° C. until analysis.

Entries after “also recorded” stand apart in the source; their conditions may differ.

On to `C#CC(=O)N(c1cc(OC)cc(OC)c1)C(C(=O)NC1CCCCC1)c1ccc(OC)cc1` (stereo not shown) [Compound 1, N-[2-(Cyclohexylamino)-1-(4-methoxyphenyl)-2-oxoethyl]-N-(3,5-dimethoxyphenyl)Propynamide], for which the SOD1 expression entry in data set [1] is “up-regulated”. Besides, the concentration for half-maximal inhibition (IC50) (usually the point on the concentration scale where inhibition reaches its midpoint) in data set [2] is 0.3 µM; in [5], 11 µM; in data set [6], 12.5 ± 2.1 µM; in [7], 2.2 ± 0.2 µM; in data set [9] it was 4.4 ± 3 µM; in [11] it was above 20 µM. For the same compound, the IC50 in [12] turned out to be 6.3 ± 1.5 µM. Further, in data set [3] (10 μM, 24 hours), the “induction of early apoptosis” value is on record as “failed to induce early apoptosis”. Moreover, the “increase in early apoptotic cells” value in data set [3] (10 μM, 48 h) was determined as 8%. The “percentage of late apoptotic cells” value in data set [3] (10 μM, 48 hours) was 35%. For the same compound, in [3], the induction of apoptosis entry is “induce apoptosis”. Further, in data set [4], the p53 protein level entry is listed as “up-regulated”. Further, the “mitochondrial superoxide production, flow cytometry” value in [8] is recorded as “induce significant amounts of superoxide”. Further, the “decrease in full-length caspase-9 protein level” value in [10] is reported as 2 fold.
As to `C#CC(=O)N(c1ccc(-n2cnnn2)c(C)c1)C(C(=O)NC1CCCC1)c1ccccc1F` (stereo not shown) [Compound 4, N-[2-(Cyclopentylamino)-1-(2-fluorophenyl)-2-oxoethyl]-N-[3-methyl-4-(1H-tetraazol-1-yl)phenyl]Propynamide], in [13] (5 μM, 6, 12 and 24 hours), the cell cycle perturbation result is “induced both S- and G2/M-arrest; also recorded: block cell cycle progression at both S and G2/M phases”. Further, in data set [13] (5 μM, 24 hours), the “increase in number of cells retained in G2/M phase vs untreated control” value came to 7%. In addition, the “increase in number of cells retained in S phase vs untreated control” value in data set [13] (5 μM, 24 hours) is listed as 10%. The concentration for half-maximal inhibition (IC50) in data set [2] was 1 ± 0.3 µM; in data set [5], 5.5 ± 0.7 µM; in data set [6] it was 6.3 ± 1.8 µM; in data set [7], 0.7 ± 0.5 µM; in data set [15] it was 1 to 2.5 µM; in [9], 1.5 ± 0.8 µM. For the same compound, the IC50 in data set [11] was determined as 6.3 ± 1 µM; in data set [12], 1.8 ± 1.7 µM. The “percentage of late apoptotic cells” value in [3] (10 μM, 24 hours) was 27%; in data set [3] (10 μM, 48 hours) it was 62%. For the same compound, the “percentage of early apoptotic cells” value in data set [3] (10 μM, 48 hours) worked out at 24%. The induction of apoptosis result in data set [3] is reported as “induce apoptosis”. In data set [14], the “cytotoxic potency in MDA-MB-435 cells” value is recorded as “one of the most active compounds”. In addition, the “cytotoxic potency in 5637 cells” value in data set [7] is on record as “remarkable potency”. The “mitochondrial superoxide production, flow cytometry” value in data set [8] is listed as “induce significant amounts of superoxide”. For the same compound, in [16] (in vivo, 24 mg/kg), the AUC (commonly concentration integrated over time) is 520 ng·h/mL. Also, the highest concentration (Cmax) (commonly the highest concentration seen after dosing) in data set [16] (in vivo, 24 mg/kg) is 344 ng/mL. Further, the Kel in data set [16] (in vivo, 24 mg/kg) was 0.206 h⁻¹. The Tmax (commonly the time at which the peak concentration occurs) in data set [16] (in vivo, 24 mg/kg) is 1.0 h. Moreover, the half-life (in general, the time in which the quantity being followed falls by half) in data set [16] (in vivo, 24 mg/kg) is around 3.5 h. This compound also displayed a t1/2 in [16] (in vivo, 24 mg/kg) of 3.5 h. Besides, in data set [16] (plasma, mice, 24 mg/kg i.p., 1 hour, read-out: concentration in the blood one hour following i.p. administration), the concentration at 1 h amounted to 344 ng/mL.
